According to PubChem BioAssay (NCI):
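48-hour exposure; five concentrations; linearly interpolated endpoints. At the TGI there is no net growth.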

Experiments:
Assay in all cases: inhibition of tumour cell growth, NCI panel, 48 h
UACC-257 melanoma = system: UACC-257 melanoma
MDA-MB-231 breast = system: MDA-MB-231 breast
MCF7 breast = system: MCF7 breast
SNB-19 CNS = system: SNB-19 CNS
BT-549 breast = system: BT-549 breast
NCI-H522 lung = system: NCI-H522 lung
MDA-MB-435 = system: MDA-MB-435
UACC-62 melanoma = system: UACC-62 melanoma
COLO 205 colon = system: COLO 205 colon
NCI-H226 lung = system: NCI-H226 lung
M14 melanoma = system: M14 melanoma
HS 578T breast = system: HS 578T breast
MALME-3M melanoma = system: MALME-3M melanoma
SK-MEL-2 melanoma = system: SK-MEL-2 melanoma
ACHN renal = system: ACHN renal
NCI-H460 lung = system: NCI-H460 lung
RXF 393 renal = system: RXF 393 renal
OVCAR-4 ovarian = system: OVCAR-4 ovarian
HL-60(TB) leukemia = system: HL-60(TB) leukemia
A549 NSCLC = system: A549 NSCLC
SR leukemia = system: SR leukemia
SW-620 colon = system: SW-620 colon
UO-31 renal = system: UO-31 renal
OVCAR-8 ovarian = system: OVCAR-8 ovarian
786-0 renal = system: 786-0 renal
IGROV1 ovarian = system: IGROV1 ovarian
NCI/ADR-RES ovarian = system: NCI/ADR-RES ovarian
SK-OV-3 ovarian = system: SK-OV-3 ovarian
SN12C renal = system: SN12C renal
HCT-15 colon = system: HCT-15 colon
PC-3 prostate = system: PC-3 prostate
EKVX NSCLC = system: EKVX NSCLC
NCI-H23 lung = system: NCI-H23 lung
SK-MEL-5 melanoma = system: SK-MEL-5 melanoma
U251 CNS = system: U251 CNS
T-47D breast = system: T-47D breast
SF-295 CNS = system: SF-295 CNS
MDA-N = system: MDA-N
HOP-92 NSCLC = system: HOP-92 NSCLC
MOLT-4 leukemia = system: MOLT-4 leukemia
HCT-116 colon = system: HCT-116 colon
LOX IMVI melanoma = system: LOX IMVI melanoma
K-562 leukemia = system: K-562 leukemia
HCC-2998 colon = system: HCC-2998 colon
CAKI-1 renal = system: CAKI-1 renal
TK-10 renal = system: TK-10 renal
RPMI-8226 leukemia = system: RPMI-8226 leukemia
A498 renal = system: A498 renal
HOP-62 NSCLC = system: HOP-62 NSCLC
DU-145 prostate = system: DU-145 prostate
CCRF-CEM leukemia = system: CCRF-CEM leukemia
SNB-75 CNS = system: SNB-75 CNS
OVCAR-3 ovarian = system: OVCAR-3 ovarian
HT29 colon = system: HT29 colon
OVCAR-5 ovarian = system: OVCAR-5 ovarian
KM12 colon = system: KM12 colon
SF-539 CNS = system: SF-539 CNS
SK-MEL-28 melanoma = system: SK-MEL-28 melanoma
SF-268 CNS = system: SF-268 CNS

## C/C=C/[C@@H](C(=O)OC)N1C(=O)c2ccccc2[C@H]1O
UACC-257 melanoma
  TGI: > 100 µM
MDA-MB-231 breast
  TGI: > 100 µM
MCF7 breast
  TGI: > 100 µM
SNB-19 CNS
  TGI: > 100 µM
BT-549 breast
  TGI: > 100 µM
NCI-H522 lung
  TGI: > 100 µM
MDA-MB-435
  TGI: > 100 µM
UACC-62 melanoma
  TGI: > 100 µM
COLO 205 colon
  TGI: > 100 µM
NCI-H226 lung
  TGI: > 100 µM
M14 melanoma
  TGI: > 100 µM
HS 578T breast
  TGI: > 100 µM
MALME-3M melanoma
  TGI: > 100 µM
SK-MEL-2 melanoma
  TGI: > 100 µM
ACHN renal
  TGI: > 100 µM
NCI-H460 lung
  TGI: > 100 µM
RXF 393 renal
  TGI: > 100 µM
OVCAR-4 ovarian
  TGI: > 100 µM
HL-60(TB) leukemia
  TGI: > 100 µM
A549 NSCLC
  TGI: > 100 µM
SR leukemia
  TGI: > 100 µM
SW-620 colon
  TGI: > 100 µM
UO-31 renal
  TGI: > 100 µM
OVCAR-8 ovarian
  TGI: > 100 µM
786-0 renal
  TGI: > 100 µM
IGROV1 ovarian
  TGI: > 100 µM
NCI/ADR-RES ovarian
  TGI: > 100 µM
SK-OV-3 ovarian
  TGI: > 100 µM
SN12C renal
  TGI: > 100 µM
HCT-15 colon
  TGI: > 100 µM
PC-3 prostate
  TGI: > 100 µM
EKVX NSCLC
  TGI: > 100 µM
NCI-H23 lung
  TGI: > 100 µM
SK-MEL-5 melanoma
  TGI: > 100 µM
U251 CNS
  TGI: > 100 µM
T-47D breast
  TGI: > 100 µM
SF-295 CNS
  TGI: > 100 µM
MDA-N
  TGI: > 100 µM
HOP-92 NSCLC
  TGI: > 100 µM
MOLT-4 leukemia
  TGI: > 100 µM
HCT-116 colon
  TGI: > 100 µM
LOX IMVI melanoma
  TGI: > 100 µM
K-562 leukemia
  TGI: > 100 µM
HCC-2998 colon
  TGI: > 100 µM
CAKI-1 renal
  TGI: > 100 µM
TK-10 renal
  TGI: > 100 µM
RPMI-8226 leukemia
  TGI: > 100 µM
A498 renal
  TGI: > 100 µM
HOP-62 NSCLC
  TGI: > 100 µM
DU-145 prostate
  TGI: > 100 µM
CCRF-CEM leukemia
  TGI: > 100 µM
SNB-75 CNS
  TGI: > 100 µM
OVCAR-3 ovarian
  TGI: > 100 µM
HT29 colon
  TGI: > 100 µM
OVCAR-5 ovarian
  TGI: > 100 µM
KM12 colon
  TGI: > 100 µM
SF-539 CNS
  TGI: > 100 µM
SK-MEL-28 melanoma
  TGI: > 100 µM
SF-268 CNS
  TGI: > 100 µM

## COc1ccc(Oc2ccc3cc4c(cc3c2O)OCO4)c2cc(C)oc12
UACC-257 melanoma
  TGI: 61.1 µM
MDA-MB-231 breast
  TGI: > 100 µM
MCF7 breast
  TGI: > 100 µM
SNB-19 CNS
  TGI: > 100 µM
BT-549 breast
  TGI: 71.4 µM
NCI-H522 lung
  TGI: 93.7 µM
MDA-MB-435
  TGI: 75.1 µM
UACC-62 melanoma
  TGI: > 100 µM
COLO 205 colon
  TGI: 72.3 µM
NCI-H226 lung
  TGI: 83.8 µM
M14 melanoma
  TGI: 78.9 µM
HS 578T breast
  TGI: > 100 µM
MALME-3M melanoma
  TGI: 74.8 µM
SK-MEL-2 melanoma
  TGI: 47.4 µM
ACHN renal
  TGI: > 100 µM
NCI-H460 lung
  TGI: 64.3 µM
RXF 393 renal
  TGI: 45.1 µM
OVCAR-4 ovarian
  TGI: > 100 µM
HL-60(TB) leukemia
  TGI: 83.9 µM
A549 NSCLC
  TGI: > 100 µM
SR leukemia
  TGI: 93.3 µM
SW-620 colon
  TGI: > 100 µM
UO-31 renal
  TGI: > 100 µM
OVCAR-8 ovarian
  TGI: > 100 µM
786-0 renal
  TGI: > 100 µM
IGROV1 ovarian
  TGI: > 100 µM
NCI/ADR-RES ovarian
  TGI: 78.8 µM
SK-OV-3 ovarian
  TGI: > 100 µM
SN12C renal
  TGI: > 100 µM
HCT-15 colon
  TGI: > 100 µM
PC-3 prostate
  TGI: > 100 µM
EKVX NSCLC
  TGI: > 100 µM
NCI-H23 lung
  TGI: > 100 µM
SK-MEL-5 melanoma
  TGI: 32.3 µM
T-47D breast
  TGI: > 100 µM
SF-295 CNS
  TGI: > 100 µM
MDA-N
  TGI: > 100 µM
HOP-92 NSCLC
  TGI: 70.1 µM
MOLT-4 leukemia
  TGI: 65.3 µM
HCT-116 colon
  TGI: > 100 µM
LOX IMVI melanoma
  TGI: 43.9 µM
K-562 leukemia
  TGI: 81.4 µM
HCC-2998 colon
  TGI: 49.8 µM
CAKI-1 renal
  TGI: > 100 µM
TK-10 renal
  TGI: 93.7 µM
RPMI-8226 leukemia
  TGI: 45.2 µM
A498 renal
  TGI: > 100 µM
HOP-62 NSCLC
  TGI: > 100 µM
DU-145 prostate
  TGI: > 100 µM
CCRF-CEM leukemia
  TGI: 89.2 µM
SNB-75 CNS
  TGI: > 100 µM
OVCAR-3 ovarian
  TGI: > 100 µM
HT29 colon
  TGI: 55.3 µM
OVCAR-5 ovarian
  TGI: > 100 µM
KM12 colon
  TGI: > 100 µM
SF-539 CNS
  TGI: > 100 µM
SK-MEL-28 melanoma
  TGI: > 100 µM
SF-268 CNS
  TGI: > 100 µM
